Results published in US11230545B2, “Heterocyclic compound” (Takeda Pharmaceutical Company Limited, priority 2018, dated 2022).

Key:
[1] = tested on: OCI-Ly3 cells; assay: Measurement of growth inhibitory activity using OCI-Ly3 cells; type: cell-based; conditions: Homo sapiens, 144 h, 3 μm compound, 6 days, read-out: Cell growth inhibition rate (%) at 3 μm compound
Description: OCI-Ly3 cells were seeded in a cell culture medium IMDM (Fujifilm Wako Pure Chemical Corporation) containing 20% FCS (fetal calf serum, Thermo Fisher Scientific) and monothioglycerol (Fujifilm Wako Pure Chemical Corporation) so as to be at 1.25×10^3 cells/well on a 96-well plate. Cell Titer-Glo solution (Promega) was added to cells to which the test compound had not been added, followed by stirring at room temperature for 15 minutes. Subsequently, the luminescence value was measured with Envision (PerkinElmer) on the day of seeding. Cells to which the test compound dissolved in dimethyl sulfoxide (Fujifilm Wako Pure Chemical Corporation) had been added were allowed to stand in a CO2 incubator (37° C.) for 6 days. Subsequently, the luminescence value was measured in the same manner. The inhibition rate (%) of the test compound on OCI-Ly3 cell growth was calculated by the following formula. Cell growth inhibition rate (%)=(1−(Luminescent value on day 6 of test compound treatment−Luminescent value before test compound treatment)/(Luminescent value on day 6 without compound addition−Luminescent value before compound treatment))×100

[2] = target: T1, recombinant human MALT1 (Homo sapiens, UniProt Q9UDY8); assay: Measurement of MALT1 enzyme inhibitory activity; type: biochemical; conditions: read-out: MALT1 enzyme inhibition rate (%) at 3 μM compound
T1 construct: to form a human MALT1 (340-789aa) dimer; His tag (from pET28a, N-terminal) (N); yeast GCN4 leucine zipper (251-281aa), fusion partner for dimerisation (N); translates to GSGSGS), between GCN4 zipper and MALT1 (N); His tag (C-terminal) (C); made in house; host or cells: E. coli BL21 (DE3)
Description: On the human MALT1 gene, PCR was carried out using GC-030-[…] (pENTR221/MALT1, GeneCopoeia) as a template with primers having BamH I restriction enzyme at the N-terminal and Not I restriction enzyme at the C-terminal to form a human MALT1 (340-789aa) dimer. […] Both of the obtained fragments were treated with the restriction enzymes, and inserted between Nde I and Not I of a pET28a (Novagen) vector to yield a recombinant human MALT1 protein expression vector pET28a/His-LZ-hMALT1v1 (340-789)-His. The recombinant human MALT1 protein was prepared by transforming the expression plasmid prepared as above with ECOS Competent E. coli BL21 (DE3) (Nippon Gene Co., Ltd.). Escherichia coli obtained by transformation was inoculated into 300 mL of LB medium (1% tryptone, 0.5% yeast extract, 0.5% sodium chloride, 0.01% ampicillin) and cultured at 30° C. for 16 hours. […] Furthermore, culturing was carried out for 16 hours to induce expression of human MALT1 protein. After completion of the culture, the culture solution was centrifuged at 5,000 rpm for 10 minutes. […] This crushed liquid was centrifuged (15,300×G, 30 min, TOMY MX-301), and the obtained supernatant was passed through and adsorbed to a Ni-NTA Superflow (QIAGEN) column previously equilibrated with 50 mM Tris-HCl pH 8.0, 300 mM NaCl, 5 mM DTT and 10% glycerol, followed by elution in a buffer containing 50 mM Tris-HCl pH 8.0, 300 mM NaCl, 5 mM DTT, 10% glycerol and 250 mM imidazole. […] The prepared protein was stored at -30° C., and the protein concentration was measured with a BCA Protein Assay Kit (PIERCE) using BSA as a standard. […] Subsequently, 2 μL of a purified recombinant human MALT1 enzyme solution was added, followed by incubation for 60 minutes at room temperature. To the mixture were added 2 μL of a substrate solution (75 μM Ac-LRSR-AFC (SM Biochemicals), 20 mM HEPES (Dojin Laboratories), 10 mM KCl (Wako Pure Chemical Industries, Ltd.), 1.5 mM MgCl2 (Sigma-Aldrich), 1 mM EDTA (pH 8.0) (Nippon Gene Co., Ltd.), 0.01% Triton X-100 (Sigma-Aldrich) and 1 mM DTT (Wako Pure Chemical Industries, Ltd.), followed by incubation for 60 minutes at room temperature. The fluorescence values of excitation 400 nm and emission 485 nm immediately after substrate addition and after enzymatic reaction were measured with a plate reader Envision (PerkinElmer), and the fluorescence values increased by enzymatic reaction were used for calculation of the inhibition rate (%).

T1 sequence (Q9UDY8 340-789): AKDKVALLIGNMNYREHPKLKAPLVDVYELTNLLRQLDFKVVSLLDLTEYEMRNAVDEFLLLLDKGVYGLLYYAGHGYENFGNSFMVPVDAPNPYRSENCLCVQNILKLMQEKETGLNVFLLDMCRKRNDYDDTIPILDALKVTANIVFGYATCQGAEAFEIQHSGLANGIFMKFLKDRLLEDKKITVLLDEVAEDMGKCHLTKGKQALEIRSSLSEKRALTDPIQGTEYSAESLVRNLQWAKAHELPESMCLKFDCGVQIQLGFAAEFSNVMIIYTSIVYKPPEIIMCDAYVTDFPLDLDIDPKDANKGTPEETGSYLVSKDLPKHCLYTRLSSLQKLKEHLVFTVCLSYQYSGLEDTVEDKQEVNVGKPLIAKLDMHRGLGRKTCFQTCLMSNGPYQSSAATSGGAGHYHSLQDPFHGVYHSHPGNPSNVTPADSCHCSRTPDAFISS
T1 sequence (P03069 251-281 partner limits assumed): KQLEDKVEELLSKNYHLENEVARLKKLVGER

inhibition at 3 µM [2]	SMILES	inhibition at 3 µM [1]
99%	CC(c1c(NC(=O)Nc2cnc(OC(F)F)c(Cl)c2)cnn2cc(Cl)nc12)C(F)(F)F (stereo not drawn) [Example 173, N-(5-Chloro-6-(difluoromethoxy)pyridin-3-yl)-N′-(2-chloro-8-(1,1,1-trifluoropropan-2-yl)imidazo[1,2-b]pyridazin-7-yl)urea]	85%
97%	COc1nccc2ncc(NC(=O)Nc3cnc(-n4nccn4)c(C(F)(F)F)c3)c(C(C)OC)c12 (stereo not drawn) [Example 255, N-(5-Methoxy-4-(1-methoxyethyl)-1,6-naphthyridin-3-yl)-N'-(6-(2H-1,2,3-triazol-2-yl)-5-(trifluoromethyl)pyridin-3-yl)urea]	99%
98%	COC(C)c1c(NC(=O)Nc2cnc(-n3nccn3)c(C(F)(F)F)c2)cnc2ccnc(C)c12 (stereo not drawn) [Example 261, N-(4-(1-Methoxyethyl)-5-methyl-1,6-naphthyridin-3-yl)-N'-(6-(2H-1,2,3-triazol-2-yl)-5-(trifluoromethyl)pyridin-3-yl)urea]	88%
94%	COc1ncc(NC(=O)Nc2cnc3ccn(C)c(=O)c3c2C(C)OC)cc1Cl (stereo not drawn) [Example 270, N-(5-Chloro-6-methoxypyridin-3-yl)-N'-(4-(1-methoxyethyl)-6-methyl-5-oxo-5,6-dihydro-1,6-naphthyridin-3-yl)urea]	40%
99%	COC(C)c1c(NC(=O)Nc2cnc(-n3nccn3)c(C(F)(F)F)c2)cnc2ccc(=O)n(C)c12 (stereo not drawn) [Example 269, N-(4-(1-Methoxyethyl)-5-methyl-6-oxo-5,6-dihydro-1,5-naphthyridin-3-yl)-N'-(6-(2H-1,2,3-triazol-2-yl)-5-(trifluoromethyl)pyridin-3-yl)urea]	95%

Second part, the molecule before the results:

SMILES	inhibition at 3 µM [2]	inhibition at 3 µM [1]
CO[C@@H](C)c1c(NC(=O)Nc2cnc(OC(F)F)c(Br)c2)cnn2cc(C)nc12 [Example 35, (S)-N-(5-Bromo-6-(difluoromethoxy)pyridin-3-yl)-N′-(8-(1-methoxyethyl)-2-methylimidazo[1,2-b]pyridazin-7-yl)urea]	105%	95%
COC(C)c1c(NC(=O)Nc2cnc(OC(F)F)c(Cl)c2)cnc2ccc(Cl)nc12 (stereo not drawn) [Example 59, N-(5-Chloro-6-(difluoromethoxy)pyridin-3-yl)-N′-(6-chloro-4-(1-methoxyethyl)-1,5-naphthyridin-3-yl)urea]	95%	98%
CO[C@@H](C)c1c(NC(=O)Nc2cnc(-n3nccn3)c(C(F)F)c2)cnn2cc(C)nc12 [Example 31, (S)-N-(5-(Difluoromethyl)-6-(2H-1,2,3-triazol-2-yl)pyridin-3-yl)-N′-(8-(1-methoxyethyl)-2-methylimidazo[1,2-b]pyridazin-7-yl)urea]	103%	96%
CO[C@@H](C)c1c(NC(=O)Nc2cc(C(F)(F)F)c(-n3nccn3)nc2C)cnn2cc(C)nc12 [Example 22, (S)-N-(8-(1-Methoxyethyl)-2-methylimidazo[1,2-b]pyridazin-7-yl)-N′-(2-methyl-6-(2H-1,2,3-triazol-2-yl)-5-(trifluoromethyl)pyridin-3-yl)urea]	104%	102%
COC(C)c1c(NC(=O)Nc2cnc(-n3nccn3)c(Cl)c2)cnn2cc(Cl)nc12 (stereo not drawn) [Example 133, N-(2-Chloro-8-(1-methoxyethyl)imidazo[1,2-b]pyridazin-7-yl)-N′-(5-chloro-6-(2H-1,2,3-triazol-2-yl)pyridin-3-yl)urea]	99%	98%
COCc1cnn(-c2ncc(NC(=O)Nc3cnn4cc(C)nc4c3[C@H](C)OC)cc2Cl)n1 [Example 36, (S)-N-[5-Chloro-6-(4-(methoxymethyl)-2H-1,2,3-triazol-2-yl)pyridin-3-yl)-N′-(8-(1-methoxyethyl)-2-methylimidazo[1,2-b]pyridazin-7-yl)urea]	101%	96%
Cc1cn2ncc(NC(=O)Nc3cnc(-n4nccn4)c(Cl)c3)c(C(C)C)c2n1 [Example 9, N-(5-Chloro-6-(2H-1,2,3-triazol-2-yl)pyridin-3-yl)-N′-(2-methyl-8-(propan-2-yl)imidazo[1,2-b]pyridazin-7-yl)urea]	99%	99%
CO[C@@H](C)c1c(NC(=O)Nc2cnc(-n3nccn3)c(C(F)(F)F)c2)cnn2cc(C)nc12 [Example 6, (S)—N-(8-(1-Methoxyethyl)-2-methylimidazo[1,2-b]pyridazin-7-yl)-N′-(6-(2H-1,2,3-triazol-2-yl)-5-(trifluoromethyl)pyridin-3-yl)urea]	108%	99%
COC(C)(C)c1c(NC(=O)Nc2cnc(-n3nccn3)c(Cl)c2)cnn2cc(C)nc12 [Example 7, N-(5-Chloro-6-(2H-1,2,3-triazol-2-yl)pyridin-3-yl)-N′-(8-(2-methoxypropan-2-yl)-2-methylimidazo[1,2-b]pyridazin-7-yl)urea]	98%	95%
CO[C@@H](C)c1c(NC(=O)Nc2cc(C(F)(F)F)c(-n3nccn3)nc2C)cnc2ccc(Cl)nc12 [Example 66, (S)-N-(6-Chloro-4-(1-methoxyethyl)-1,5-naphthyridin-3-yl)-N′-(2-methyl-6-(2H-1,2,3-triazol-2-yl)-5-(trifluoromethyl)pyridin-3-yl)urea]	99%	100%
CO[C@@H](C)c1c(NC(=O)Nc2cnc(OC(F)F)c(C#N)c2)cnn2cc(C)nc12 [Example 5, (S)—N-(5-Cyano-6-(difluoromethoxy)pyridin-3-yl)-N′-(8-(1-methoxyethyl)-2-methylimidazo[1,2-b]pyridazin-7-yl)urea]	99%	93%
CC(C)c1c(NC(=O)Nc2cnc(OC(F)F)c(Cl)c2)cnn2cc(Cl)nc12 [Example 8, N-(5-Chloro-6-(difluoromethoxy)pyridin-3-yl)-N′-(2-chloro-8-(propan-2-yl)imidazo[1,2-b]pyridazin-7-yl)urea]	94%	
